Data set [1] in a line: Solubility of PMIDA in water and HCl (saturation concentrations). It is filed as physicochemical. Particulars: for solubility thermodynamic: water, thermodynamic from solid, H2O. The text has this:
In certain embodiments, the organic compound comprising a phosphonoalkyl moiety is at least partially solubilized in the organic or mineral acid. As used herein, the term “at least partially solubilized,” and grammatical variants thereof, with reference to the organic compound comprising a phosphonoalkyl moiety in the organic or mineral acid refers to dissolution of at least about 2% weight per volume (w/v) of the organic compound comprising a phosphonoalkyl moiety in the organic or mineral acid at room temperature. As used herein, the term “room temperature” refers to about 15° C. to about 25° C. The remaining excess organic compound comprising a phosphonoalkyl moiety may be suspended in the organic or mineral acid while it is undergoing dynamic fluid flow at room temperature. As temperatures increase (e.g., as the treatment fluid is introduced into a subterranean formation and encounters downhole temperatures), the solubility of the organic compound comprising a phosphonoalkyl moiety in the organic or mineral acid may increase. Indeed, the solubility of the organic compound comprising a phosphonoalkyl moiety increases as a function of acid concentration, and temperature.

Data set [2] is described as follows: PMIDA added to base solubility test. It is filed as physicochemical. Particulars: base added to PMIDA in solid form or high concentrated slurry. As for the experimental part: During the testing, however, it was observed that adding the base to the PMIDA in its solid form, or in a high concentrated slurry, was unsuccessful.
The following procedure was followed to generate several samples. First, a quantity of a known base in water was prepared. Next, PMIDA was added to the solution at a rate slow enough to ensure that no boiling of the fluid occurred. As discussed above, it is believed that the addition of the PMIDA to the base may result in an exothermic reaction that may aid in additional solubilizing of PMIDA due to the increase in the fluid temperature. After complete addition and thorough mixing, the fluid was cooled, and the volume, weight, and pH were measured. Finally, the concentration and density of the samples were determined.

Converted amounts (≈) assume the structure as drawn.

One may read the thermodynamic solubility as the concentration in solution at equilibrium with solid.

In the case of `O=C(O)CN(CC(=O)O)CP(=O)(O)O` [PMIDA, N-(phosphonomethyl)iminodiacetic acid], in data set [1] (Atm., 7.5% HCl, 200° F.), the “Solubility Average” value is on record as 10.00 w/v %. Also, the solubility (thermodynamic) in data set [1] (37.8 °C, 200 psi, 100° F.) is 18.3 mg/mL (≈ 80.6 mM); in data set [1] (37.8 °C, Atm., 100° F.) it was 22.6 mg/mL (≈ 99.5 mM); in data set [1] (65.6 °C, 200 psi, 150° F.) it was 28.7 mg/mL (≈ 126 mM); in data set [1] (65.6 °C, Atm., 150° F.) it was 31.9 mg/mL (≈ 140 mM); in data set [1] (93.3 °C, 200 psi, 200° F.), 51.1 mg/mL (≈ 225 mM); in data set [1] (93.3 °C, Atm., 200° F.) it was 47.9 mg/mL (≈ 211 mM). Moreover, the “Solubility in the base mixture” value in data set [2] is given as “substantially insoluble”.
